Results: paper PMC10817917, “Alkyl deoxyglycoside-polymyxin combinations against critical priority carbapenem-resistant gram-negative bacteria” (Scientific Reports, 2024)
Where two headings read alike, the source gives them in different places.

Assays:
[1] = system: K. pneumoniae CQ1947; experiment: Broth microdilution MIC, glycosides with or without polymyxins; assay type: cell-based, Klebsiella pneumoniae; conditions: for MIC: Klebsiella pneumoniae, CQ1947
[2] = system: E. cloacae CQ1941; experiment: Broth microdilution MIC/MBC, glycosides with or without polymyxins; assay type: cell-based; conditions: for MIC: Enterobacter cloacae, CQ1941
[3] = system: K. pneumoniae CQ1942; experiment: Broth microdilution MIC, glycosides with or without polymyxins; assay type: cell-based, Klebsiella pneumoniae; conditions: for MIC: Klebsiella pneumoniae, CQ1942
[4] = system: A. baumannii CQ4322; experiment: Broth microdilution MIC/MBC, glycosides with or without polymyxins; assay type: cell-based, Acinetobacter baumannii; conditions: for MIC: Acinetobacter baumannii, CQ4322
[5] = alone, read-out: MICA (MIC of each compound individually)
[6] = combination with the lowest FICI
[7] = compound + colistin, lowest FICI

Structure (SMILES): CCCCCCCCCCCCO[C@@H]1O[C@H](C)C[C@H](O)[C@H]1O [Compound 2, dodecyl 4,6-dideoxy-α/β-D-xylo-hexopyranoside]
- MIC of colistin in combination with the compound ([1]; Cpd conc. 0.8 μg/mL, strain F): 0.5 µg/mL
- MIC of colistin in combination with the compound ([1]; Cpd conc. 3.125 μg/mL, strain F): 0.5 µg/mL
- MIC of colistin in combination with the compound ([1]; Cpd conc. 6.25 μg/mL, strain F): 0.5 µg/mL
- MIC of colistin in combination with the compound ([1]; Cpd conc. 12.5 μg/mL, strain F): 0.5 µg/mL
- MIC of colistin in combination with the compound ([1]; Cpd conc. […], strain F): 0.5 µg/mL
- MIC ([1]; agent alone, no adjuvant (polymyxin conc. 0), strain F, read-out: MIC): > 100 µg/mL
- MIC [1, 5]: > 100 µg/mL
- MIC of compound in combination with PMB ([1]; PMB 0.25 μg/mL, strain F): > 100 µg/mL
- MIC of compound in combination with PMB ([1]; PMB 0.5 μg/mL, strain F): 0.8 µg/mL
- MIC of compound in combination with colistin ([1]; colistin 0.06 μg/mL, strain F): > 100 µg/mL
- MIC of compound in combination with colistin ([1]; colistin 0.125 μg/mL, strain F): > 100 µg/mL
- MIC of compound in combination with colistin ([1]; colistin 0.25 μg/mL, strain F): > 100 µg/mL
- MIC of compound in combination with colistin ([1]; colistin 0.5 μg/mL, strain F): 0.8 µg/mL
- MICA(A + B) (MIC of compound in combination with colistin) [1, 6]: 0.8 µg/mL
- MICB(A + B) (MIC of colistin in combination with compound) [1, 6]: 0.5 µg/mL
- Interpretation (of FICI) ([1]; compound + colistin): Indifferent (1.0 to 4.0 were indifferent)
- FICI [1, 7]: 1.004
- MIC of colistin in combination with the compound ([2]; Cpd conc. 0.4 μg/mL, strain D): 0.5 µg/mL
- MIC of colistin in combination with the compound ([2]; Cpd conc. 0.8 μg/mL, strain D): 0.5 µg/mL
- MIC of colistin in combination with the compound ([2]; Cpd conc. 3.125 μg/mL, strain D): 0.25 µg/mL
- MIC of colistin in combination with the compound ([2]; Cpd conc. 6.25 μg/mL, strain D): 0.25 µg/mL
- MIC of colistin in combination with the compound ([2]; Cpd conc. 12.5 μg/mL, strain D): 0.125 µg/mL
- MIC of colistin in combination with the compound ([2]; Cpd conc. […], strain D): 0.25 µg/mL
- MIC ([2]; agent alone, no adjuvant (polymyxin conc. 0), strain D, read-out: MIC): > 100 µg/mL
- MIC [2, 5]: > 100 µg/mL
- MIC of compound in combination with PMB ([2]; PMB 0.25 μg/mL, strain D): 12.5 µg/mL
- MIC of compound in combination with PMB ([2]; PMB 0.5 μg/mL, strain D): ≤ 0.1 µg/mL
- MIC of compound in combination with colistin ([2]; colistin 0.06 μg/mL, strain D): > 100 µg/mL
- MBC of compound in combination with colistin ([2]; colistin 0.125 μg/mL, strain D): 25 µg/mL
- MIC of compound in combination with colistin ([2]; colistin 0.125 μg/mL, strain D): 12.5 µg/mL
- MIC of compound in combination with colistin ([2]; colistin 0.25 μg/mL, strain D): 1.6 µg/mL
- MIC of compound in combination with colistin ([2]; colistin 0.5 μg/mL, strain D): ≤ 0.1 µg/mL
- MICA(A + B) (MIC of compound in combination with colistin) [2, 6]: 12.5 µg/mL
- MICB(A + B) (MIC of colistin in combination with compound) [2, 6]: 0.125 µg/mL
- FICI [2, 7]: 0.31
- MIC of colistin in combination with the compound ([3]; Cpd conc. 0.4 μg/mL, strain E): 0.5 µg/mL
- MIC of colistin in combination with the compound ([3]; Cpd conc. 0.8 μg/mL, strain E): 0.5 µg/mL
- MIC of colistin in combination with the compound ([3]; Cpd conc. 3.125 μg/mL, strain E): 0.5 µg/mL
- MIC of colistin in combination with the compound ([3]; Cpd conc. 6.25 μg/mL, strain E): 0.25 µg/mL
- MIC of colistin in combination with the compound ([3]; Cpd conc. 12.5 μg/mL, strain E): 0.25 µg/mL
- MIC of colistin in combination with the compound ([3]; Cpd conc. […], strain E): 0.5 µg/mL
- MIC ([3]; agent alone, no adjuvant (polymyxin conc. 0), strain E, read-out: MIC): > 100 µg/mL
- MIC [3, 5]: > 100 µg/mL
- MIC of compound in combination with PMB ([3]; PMB 0.25 μg/mL, strain E): > 100 µg/mL
- MIC of compound in combination with PMB ([3]; PMB 0.5 μg/mL, strain E): ≤ 0.1 µg/mL
- MIC of compound in combination with colistin ([3]; colistin 0.06 μg/mL, strain E): > 100 µg/mL
- MIC of compound in combination with colistin ([3]; colistin 0.125 μg/mL, strain E): > 100 µg/mL
- MIC of compound in combination with colistin ([3]; colistin 0.25 μg/mL, strain E): 6.3 µg/mL
- MIC of compound in combination with colistin ([3]; colistin 0.5 μg/mL, strain E): ≤ 0.1 µg/mL
- MICA(A + B) (MIC of compound in combination with colistin) [3, 6]: 6.25 µg/mL
- MICB(A + B) (MIC of colistin in combination with compound) [3, 6]: 0.25 µg/mL
- Interpretation (of FICI) ([3]; compound + colistin): Additive (from 0.5 to 1.0 were additive)
- FICI [3, 7]: 0.53
- MIC ([4]; agent alone, no adjuvant (polymyxin conc. 0), strain G, read-out: MIC): > 100 µg/mL
- MIC [4, 5]: > 100 µg/mL
- MIC of colistin in combination with the compound ([4]; Cpd conc. 0.4 μg/mL, strain G): > 0.5 µg/mL
- MIC of colistin in combination with the compound ([4]; Cpd conc. 0.8 μg/mL, strain G): 0.5 µg/mL
- MIC of colistin in combination with the compound ([4]; Cpd conc. 3.125 μg/mL, strain G): 0.25 µg/mL
- MIC of colistin in combination with the compound ([4]; Cpd conc. 6.25 μg/mL, strain G): 0.125 µg/mL
- MIC of colistin in combination with the compound ([4]; Cpd conc. 12.5 μg/mL, strain G): 0.125 µg/mL
- MIC of colistin in combination with the compound ([4]; Cpd conc. […], strain G): 0.5 µg/mL
- MIC of compound in combination with PMB ([4]; PMB 0.5 μg/mL, strain G): 0.8 µg/mL
- MIC of compound in combination with colistin ([4]; colistin 0.06 μg/mL, strain G): > 100 µg/mL
- MBC of compound in combination with colistin ([4]; colistin 0.125 μg/mL, strain G): 12.5 µg/mL
- MIC of compound in combination with colistin ([4]; colistin 0.125 μg/mL, strain G): 6.3 µg/mL
- MIC of compound in combination with colistin ([4]; colistin 0.25 μg/mL, strain G): 3.1 µg/mL
- MIC of compound in combination with colistin ([4]; colistin 0.5 μg/mL, strain G): 0.8 µg/mL
- MICA(A + B) (MIC of compound in combination with colistin) [4, 6]: 6.25 µg/mL
- MICB(A + B) (MIC of colistin in combination with compound) [4, 6]: 0.125 µg/mL
- FICI [4, 7]: 0.28
